Measurements reported in US5681842A, “Prostaglandin synthase-2 inhibitors” (Abbott Laboratories, priority 1996, dated 1997).

Assays:
recombinant human PGHS-2 = biological target: T1, recombinant human PGHS-2 (Homo sapiens, UniProt P35354); test: Recombinant human PGHS-2 enzyme assay (PGE2 by EIA); type: biochemical; conditions: for inhibition at 0.1 µM: 100 nM compound, microsomes, 60 min preincubation, 10 μM arachidonic acid, read-out: RHuPGHS-2 (% I @ 100 nM)
T1 construct: made in house; host or cells: baculovirus/Sf9 insect cells (microsomes)
T1 sequence (P35354 18-604): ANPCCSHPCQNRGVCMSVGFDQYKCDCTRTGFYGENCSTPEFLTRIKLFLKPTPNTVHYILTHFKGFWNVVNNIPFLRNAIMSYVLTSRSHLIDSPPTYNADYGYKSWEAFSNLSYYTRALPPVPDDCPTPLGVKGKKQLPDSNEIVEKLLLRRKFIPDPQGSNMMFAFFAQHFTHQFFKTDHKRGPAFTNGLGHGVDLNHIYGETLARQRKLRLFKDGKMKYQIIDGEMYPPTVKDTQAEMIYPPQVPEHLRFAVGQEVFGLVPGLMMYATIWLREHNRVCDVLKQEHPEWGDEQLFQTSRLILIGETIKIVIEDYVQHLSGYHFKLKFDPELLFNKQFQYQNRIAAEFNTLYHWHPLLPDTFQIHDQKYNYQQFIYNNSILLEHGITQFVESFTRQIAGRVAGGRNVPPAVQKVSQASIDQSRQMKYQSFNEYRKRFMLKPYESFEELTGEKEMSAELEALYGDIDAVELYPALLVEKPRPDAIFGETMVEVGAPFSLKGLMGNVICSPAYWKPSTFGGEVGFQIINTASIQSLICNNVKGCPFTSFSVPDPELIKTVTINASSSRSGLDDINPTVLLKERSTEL
Protocol: (§1) A compound of the invention dissolved in DMSO (3.3% v/v) was preincubated with microsomes from recombinant human PGHS-1 or PGHS-2 expressed in the baculovirus/Sf9 cell system (Gierse, J. K., Hauser, S. D., Greely, D. P., Koboldt, C., Rangwala, S., H., Isakson, P. C., and Seibert, K. "Expression and selective inhibition of the constitutive and inducible forms of cyclooxygenase", Biochem J. 305:479 (1995)), together with the cofactors phenol (2 mM) and hematin (1 μM) for 60 minutes prior to the addition of 10 μM arachidonic acid. The reaction was allowed to run for 2.5 minutes at room temperature prior to quenching with HCl and neutralization with NaOH. PGE2 production in the presence and absence of the drug was determined by EIA analysis.
(§2) EIA reagents for prostaglandin determination were purchased from Perseptive Diagnostics, Cambridge, Mass. PGE2 levels in lavage fluids were determined after the samples were dried under nitrogen and reconstituted with assay buffer. PGE2 levels in enzyme assays or cell culture media were measured against standards prepared in the same milieu. The immunoassays were conducted as recommended by the manufacturer. The EIA was conducted in 96 well microtiter plates (Nunc Roskilde, Denmark) and optical density measured using a microplate reader (Vmax, Molecular Devices Corp., Menlo Park, Calif.).

recombinant human PGHS-1 = biological target: T2, recombinant human PGHS-1 (Homo sapiens, UniProt P23219); test: Recombinant human PGHS-1 enzyme assay (PGE2 by EIA); type: biochemical; conditions: 100 μM compound; microsomes, 60 min preincubation, 10 μM arachidonic acid; read-out: RHuPGHS-1 (% I @ 100μM)
T2 construct: made in house; host or cells: baculovirus/Sf9 insect cells (microsomes)
T2 sequence (P23219 24-599): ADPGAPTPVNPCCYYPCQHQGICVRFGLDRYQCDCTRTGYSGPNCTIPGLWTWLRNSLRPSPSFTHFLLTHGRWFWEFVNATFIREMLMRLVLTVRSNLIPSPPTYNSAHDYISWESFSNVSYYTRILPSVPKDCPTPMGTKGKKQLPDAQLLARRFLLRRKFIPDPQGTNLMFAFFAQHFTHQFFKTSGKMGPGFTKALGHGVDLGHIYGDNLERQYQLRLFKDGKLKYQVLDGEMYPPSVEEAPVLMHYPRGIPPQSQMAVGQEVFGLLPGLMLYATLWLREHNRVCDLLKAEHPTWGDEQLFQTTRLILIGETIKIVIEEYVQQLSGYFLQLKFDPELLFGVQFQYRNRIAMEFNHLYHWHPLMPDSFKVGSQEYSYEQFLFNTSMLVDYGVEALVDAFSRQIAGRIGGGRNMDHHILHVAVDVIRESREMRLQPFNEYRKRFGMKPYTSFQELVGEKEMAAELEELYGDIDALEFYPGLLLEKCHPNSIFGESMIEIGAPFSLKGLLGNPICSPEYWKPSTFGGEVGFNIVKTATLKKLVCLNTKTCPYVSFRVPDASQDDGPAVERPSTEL
Protocol: as §1, §2

[1] = tested on: prostaglandin production in the pleural cavity; test: Carrageenan induced pleurisy test (CIP); type: in vivo, Sprague-Dawley rats; conditions: rats, 10 mg/kg oral, 30 minutes prior to intrapleural carrageenan; lavage four hours after
Protocol: as §2
Inhibition of carrageenan induced pleurisy in rats was determined essentially as described by F. B. De Brito, (Pleurisy and Pouch Models of Acute Inflammation in Pharmalogical Methods in the Control of Inflammation, Eds, J. Y. Chang and A. J. Lewis, Alan Liss Inc., New York: 173-194, 1989) and Vinegar et al. ("Quantitative studies of the pathway to acute carrageenan inflammation", Fed. Proc., 35:2447-2456 (1976)). Briefly, eight Sprague-Dawley rats were orally dosed with 10 mg/kg of a compound of the invention 30 minutes prior to intrapleural injection of 2% lambda carrageenan (Sigma Chemical Co., St. Louis Mo.). Four hours after carrageenan injection, the animals were euthanized and their pleural cavities lavaged with ice cold saline. The lavage fluid was then added to two volumes of ice cold methanol (final methanol concentration 66%) to lyse cells and precipitate protein. Prostaglandin levels in the methanol/lavage fluid were then determined by EIA.

| Structure (SMILES) | inhibition at 0.1 µM (recombinant human PGHS-2) | inhibition at 100 µM (recombinant human PGHS-1) | inhibitory potency against recombinant human PGHS-2 (in words) (recombinant human PGHS-2) | inhibition of prostaglandin production in the pleural cavity [1] |
| --- | --- | --- | --- | --- |
| CS(=O)(=O)Nc1ccc([N+](=O)[O-])cc1Oc1ccc2sccc2c1 [Example 3, N-(4-Nitro-2-(benzothiophen-5'-yloxy)phenyl)methanesulfonamide] | 59% | 89% | – | 48% |
| CS(=O)(=O)Nc1ccc([N+](=O)[O-])cc1Oc1ccc2c(c1)OCO2 [Example 5, N-(4-Nitro-2-(1,3-benzodioxol-6-yloxy)phenyl)methanesulfonamide] | 77% | 89% | most potent | 36% |
| CS(=O)(=O)Nc1ccc([N+](=O)[O-])cc1Oc1ccc2cc(F)ccc2c1 [Example 2, N-(4-Nitro-2-(6'-fluoro-naphth-2'-yloxy)phenyl)methanesulfonamide] | 56% | 26% | – | 20% |

Now from value to compound, other results behind:

| inhibition at 0.1 µM (recombinant human PGHS-2) | inhibition at 100 µM (recombinant human PGHS-1) | inhibitory potency against recombinant human PGHS-2 (in words) (recombinant human PGHS-2) | Structure (SMILES) | inhibition of prostaglandin production in the pleural cavity [1] |
| --- | --- | --- | --- | --- |
| 65% | 47% | – | CS(=O)(=O)Nc1ccc([N+](=O)[O-])cc1Oc1ccc2ccccc2c1 [Example 1, N(4-Nitro-2-(naphth-2'-yloxy)phenyl)methanesulfonamide] | – |
| 43% | 31% | – | CS(=O)(=O)Nc1ccc([N+](=O)[O-])cc1Oc1ccc2ncsc2c1 [Example 4] | 66% |
